{
  "source": "patent US8883746B2",
  "about": "“α-galactosylceramide derivatives, pharmaceutically acceptable salts thereof, preparation method and pharmaceutical composition for the immune adjuvant containing the same as an active ingredient” (SNU R&DB Foundation, priority 2006, dated 2014)",
  "key": {"[1]": {"system": "DN32.D3 NKT hybridoma cells", "experiment": "Stimulatory activity for NKT hybridoma cells (IL-2 secretion, ELISA)", "assay_type": "cell-based, mouse", "details": "for IL-2 production compared to α-GalCer: mouse CD1d-bearing RBL cells loaded 4 hrs, co-incubated with DN32.D3 for 16 hrs, FIG. 1; for Stimulatory effect (IL-2) compared to α-GalCer: low concentration (32 ng/mL)", "procedure": "Determination of Stimulatory Activity for NKT Hybridoma Cell (Zhou et al., Science, 306:1786-1789, 2004)\nMouse CD1d-bearing rat basophilic leukemia (RBL) cells were incubated with various concentrations of α-GalCer or the α-GalCer derivatives prepared in Examples for 4 hrs. After removing free glycolipids by washing with PBS (phosphate-buffer saline) three times, RBL cells were incubated with DN32.D3 NKT hybridoma cells for 16 hrs. IL-2 secretion levels in the supernatant were determined through ELISA (Enzyme-Linked Immunosorbent Assay)."}, "[2]": {"system": "Splenocytes from naïve C57BL/6 mice", "experiment": "Cytokine levels (IFN-γ, IL-4) produced by mouse splenocytes, ELISA", "assay_type": "cell-based", "details": "72 hrs; for IL-4 secretion compared to α-GalCer: high concentrations (125 ng/ml), FIG. 3(a); for IL-4 production compared with α-GalCer: FIG. 3(b) (2 ng/ml)", "procedure": "Evaluation of Cytokine Levels Produced by Mouse Splenocyte\nSplenocytes from naïve C57BL/6 mice were incubated with various concentrations of α-GalCer or α-GalCer derivatives for 72 hrs. IFN-γ and IL-4 secretion levels in the supernatant were determined through ELISA."}, "NKT cells": {"system": "NKT cells", "details": "literature (Goff et al., 2004); cited from earlier work"}, "naïve C57BL/6 mice": {"system": "naïve C57BL/6 mice", "experiment": "IFN-γ and IL-4 production level in vivo (serum, ELISA)", "details": "1 μg/mouse intravenously", "procedure": "Examination of IFN-γ and IL-4 Production Level In Vivo\nα-GalCer or the α-GalCer derivatives (1 μg/mouse) were intravenously injected into naïve C57BL/6 mice. The serum concentrations of IFN-γ and IL-4 at each time point were determined through ELISA."}},
  "data": [
    {"compound": "CCCCCCCCCCCCCC[C@@H](O)[C@@H](O)[C@H](CO[C@H]1OC(CO)[C@H](O)[C@H](O)[C@H]1O)n1cc(CCCCCC)nn1", "note": "(stereo partly drawn) [Example 1, (2S,3R,4S,5R)-2-((2S,3S,4R)-2-(4-hexyl-1H-1,2,3-triazol-1-yl)-3,4-dihydroxyoctadecyloxy)-6-(hydroxymethyl)-tetrahydro-2H-pyrane-3,4,5-triol]", "values": [
      {"measurement": "IL-2 production compared to α-GalCer", "setting": "[1]", "value": "ineffective"}
    ]},
    {"compound": "CCCCCCCCCCCCCC[C@@H](O)[C@@H](O)[C@H](CO[C@H]1OC(CO)[C@H](O)[C@H](O)[C@H]1O)n1cc(CCCCCCC)nn1", "note": "(stereo partly drawn) [Example 2, (2S,3R,4S,5R)-2-((2S,3S,4R)-2-(4-heptyl-1H-1,2,3-triazol-1-yl)-3,4-dihydroxyoctadecyloxy)-6-(hydroxymethyl)-tetrahydro-2H-pyrane-3,4,5-triol]", "values": [
      {"measurement": "IL-2 production compared to α-GalCer", "setting": "[1]", "value": "ineffective"},
      {"measurement": "IL-4 secretion compared to α-GalCer", "setting": "[2]", "value": "equivalent or greater IL-4 secretion than did α-GalCer"}
    ]},
    {"compound": "CCCCCCCCCCCCCCCCc1cn([C@@H](CO[C@H]2OC(CO)[C@H](O)[C@H](O)[C@H]2O)[C@H](O)[C@H](O)CCCCCCCCCCCCCC)nn1", "note": "(stereo partly drawn) [Example 3, (2S,3R,4S,5R)-2-((2S,3S,4R)-2-(4-hexadecyl-1H-1,2,3-triazol-1-yl)-3,4-dihydroxyoctadecyloxy)-6-(hydroxymethyl)-tetrahydro-2H-pyrane-3,4,5-triol]", "values": [
      {"measurement": "IL-2 production compared to α-GalCer", "setting": "[1]", "value": "not active in practice"},
      {"measurement": "melting point", "value": "162 to 164", "unit": "°C"}
    ]},
    {"compound": "CCCCCCCCCCCCCCCCCCCCCCCc1cn([C@@H](CO[C@H]2OC(CO)[C@H](O)[C@H](O)[C@H]2O)[C@H](O)[C@H](O)CCCCCCCCCCCCCC)nn1", "note": "(stereo partly drawn) [Example 4, (2S,3R,4S,5R)-2-((2S,3S,4R)-3,4-dihydroxy-2-(4-tricosyl-1H-1,2,3-triazol-1-yl)octadecyloxy)-6-(hydroxymethyl)-tetranydro-2H-pyrane-3,4,5-triol]", "values": [
      {"measurement": "IL-4 secretion compared to α-GalCer", "setting": "[2]", "value": "equivalent or greater IL-4 secretion than did α-GalCer"}
    ]},
    {"compound": "CCCCCCCCCCCCCCCCCCCCCCCCc1cn([C@@H](CO[C@H]2OC(CO)[C@H](O)[C@H](O)[C@H]2O)[C@H](O)[C@H](O)CCCCCCCCCCCCCC)nn1", "note": "(stereo partly drawn) [Example 5, (2S,3R,4S,5R)-2-((2S,3S,4R)-3,4-dihydroxy-2-(4-tetracosyl-1H-1,2,3-triazol-1-yl)octadecyloxy)-6-(hydroxymethyl)-tetrahydro-2H-pyrane-3,4,5-triol]", "values": [
      {"measurement": "Stimulatory effect (IL-2) compared to α-GalCer", "setting": "[1]", "value": "comparable stimulatory effects to α-GalCer"},
      {"measurement": "IL-4 secretion compared to α-GalCer", "setting": "[2]", "value": "equivalent or greater IL-4 secretion than did α-GalCer"},
      {"measurement": "melting point", "value": "167 to 169", "unit": "°C"}
    ]},
    {"compound": "CCCCCCCCCCCCCCCCCCCCCCCCCc1cn([C@@H](CO[C@H]2OC(CO)[C@H](O)[C@H](O)[C@H]2O)[C@H](O)[C@H](O)CCCCCCCCCCCCCC)nn1", "note": "(stereo partly drawn) [Example 6, (2S,3R,4S,5R)-2-((2S,3S,4R)-3,4-dihydroxy-2-(4-pentacosyl-1H-1,2,3-triazol-1-yl)octadecyloxy)-6-(hydroxymethyl)-tetrahydro-2H-pyrane-3,4,5-triol]", "values": [
      {"measurement": "melting point", "value": "165 to 167", "unit": "°C"}
    ]},
    {"compound": "CCCCCCCCCCCCCC[C@@H](O)[C@@H](O)[C@H](CO[C@H]1OC(CO)[C@H](O)[C@H](O)[C@H]1O)n1cc(CCCCCCc2ccccc2)nn1", "note": "(stereo partly drawn) [Example 7, (2S,3R,4S,5R)-2-((2S,3S,4R)-3,4-dihydroxy-2-(4-(6-phenylhexyl)-1H-1,2,3-triazol-1-yl)octadecyloxy)-6-(hydroxymethyl)-tetrahydro-2H-pyrane-3,4,5-triol]", "values": [
      {"measurement": "IL-2 production compared to α-GalCer", "setting": "[1]", "value": "ineffective"}
    ]},
    {"compound": "CCCCCCCCCCCCCC[C@@H](O)[C@@H](O)[C@H](CO[C@H]1OC(CO)[C@H](O)[C@H](O)[C@H]1O)n1cc(CCCCCCCc2ccccc2)nn1", "note": "(stereo partly drawn) [Example 8, (2S,3R,4S,5R)-2-((2S,3S,4R)-3,4-dihydroxy-2-(4-(7-phenylheptyl)-1H-1,2,3-triazol-1-yl)octadecyloxy)-6-(hydroxymethyl)-tetrahydro-2H-pyrane-3,4,5-triol]", "values": [
      {"measurement": "IL-2 production compared to α-GalCer", "setting": "[1]", "value": "ineffective"}
    ]},
    {"compound": "CCCCCCCCCCCCCC[C@@H](O)[C@@H](O)[C@H](CO[C@H]1OC(CO)[C@H](O)[C@H](O)[C@H]1O)n1cc(CCCCCCCCc2ccccc2)nn1", "note": "(stereo partly drawn) [Example 9, (2S,3R,4S,5R)-2-((2S,3S,4R)-3,4-dihydroxy-2-(4-(8-phenyloctyl)-1H-1,2,3-triazol-1-yl)octadecyloxy)-6-(hydroxymethyl)-tetrahydro-2H-pyrane-3,4,5-triol]", "values": [
      {"measurement": "IL-2 production compared to α-GalCer", "setting": "[1]", "value": "ineffective"}
    ]},
    {"compound": "CCCCCCCCCCCCCC[C@@H](O)[C@@H](O)[C@H](CO[C@H]1OC(CO)[C@H](O)[C@H](O)[C@H]1O)NC(=O)CCCCCCCCCCCN", "note": "(stereo partly drawn) [Example 11, 12-amino-N-((2S,3S,4R)-3,4-dihydroxy-1-((2S,3R,4S,5R)-3,4,5-trihydroxy-6-(hydroxymethyl)-tetrahydro-2H-pyran-2-yloxy)octadecan-2-yl)dodecanamide]", "values": [
      {"measurement": "Stimulatory effect (IL-2) compared to α-GalCer", "setting": "[1]", "value": "comparable stimulatory effects to α-GalCer"},
      {"measurement": "IL-4 production compared with α-GalCer", "setting": "[2]", "value": "more IL-4 production compared with α-GalCer"}
    ]},
    {"compound": "CCCCCCCCCCCCCC[C@@H](O)[C@@H](O)[C@H](CO[C@H]1OC(CO)[C@H](O)[C@H](O)[C@H]1O)NC(=O)CCCCCCCCCCO", "note": "(stereo partly drawn) [Example 12, N-((2S,3S,4R)-3,4-dihydroxy-1-((2S,3R,4S,5R)-3,4,5-trihydroxy-6-(hydroxymethyl)-tetrahydro-2H-pyran-2-yloxy)octadecan-2-yl)-11-hydroxyundecanamide]", "values": [
      {"measurement": "Stimulatory effect (IL-2) compared to α-GalCer", "setting": "[1]", "value": "comparable stimulatory effects to α-GalCer"}
    ]},
    {"compound": "CCCCCCCCCCCCCC[C@@H](O)[C@@H](O)[C@H](CO[C@H]1OC(CO)[C@H](O)[C@H](O)[C@H]1O)NC(=O)CCCCCCCCCCCO", "note": "(stereo partly drawn) [Example 13, N-((2S,3S,4R)-3,4-dihydroxy-1-((2S,3R,4S,5R)-3,4,5-trihydroxy-6-(hydroxymethyl)-tetrahydro-2H-pyran-2-yloxy)octadecan-2-yl)-12-hydroxydodecanamide]", "values": [
      {"measurement": "IL-4 production compared with α-GalCer", "setting": "[2]", "value": "more IL-4 production compared with α-GalCer"}
    ]},
    {"compound": "CCCCCCCCCCCCCC[C@@H](O)[C@@H](O)[C@H](CO[C@H]1OC(CO)[C@H](O)[C@H](O)[C@H]1O)NC(=O)CCCCCCCCCCN(CCCCCCC)CCCCCCC", "note": "(stereo partly drawn) [Example 16, 11-(diheptylamino)-N-((2S,3S,4R)-3,4-dihydroxy-1-((2S,3R,4S,5R)-3,4,5-trihydroxy-6-(hydroxymethyl)-tetrahydro-2H-pyran-2-yloxy)octadecan-2-yl)undecanamide]", "values": [
      {"measurement": "Stimulatory effect (IL-2) compared to α-GalCer", "setting": "[1]", "value": "comparable stimulatory effects to α-GalCer"},
      {"measurement": "IL-4 production compared with α-GalCer", "setting": "[2]", "value": "more IL-4 production compared with α-GalCer"}
    ]},
    {"compound": "CCCCCCCCCCCCCC[C@@H](O)[C@@H](O)[C@H](CO[C@H]1O[C@H](CO)[C@H](O)[C@H](O)[C@H]1O)NC(=O)CCCCCCC", "note": "[PBS-25]", "values": [
      {"measurement": "Secretion of Th2-cytokines compared to α-GalCer", "setting": "NKT cells", "value": "greater amount of Th2-cytokines, compared to α-GalCer"}
    ]},
    {"compound": "CCCCCCCCCCCCCCCCCCCCCCCCCC(=O)N[C@@H](CO[C@H]1O[C@H](CO)[C@H](O)[C@H](O)[C@H]1O)[C@H](O)[C@H](O)CCCCCCCCCCCCCC", "note": "[α-GalCer, α-Galactosylceramide]", "values": [
      {"measurement": "Time of peak of serum IFN-γ levels after administration", "setting": "naïve C57BL/6 mice", "value": 12, "unit": "h"},
      {"measurement": "Time of rapid increase of serum IL-4 levels after administration", "setting": "naïve C57BL/6 mice", "value": "≤ 2", "unit": "h"}
    ]}
  ]
}
